Experimental findings from US20090076049A1, “Novel Spiro [Imidazolidine-4, 3' -Indole] 2, 2', 5' (1H) Triones for Treatment of Conditions Associated with Vanilloid Receptor 1” (AstraZeneca AB, priority 2006, published 2009) are described below.

Usually IC50 stands for the concentration needed to halve the response being measured.

This assay deals with T1, hVR1 (Homo sapiens, UniProt Q8NER1).
T1 construct: expressed in transfected cells; host or cells: CHO cells, stably transfected
T1 sequence (Q8NER1 whole entry): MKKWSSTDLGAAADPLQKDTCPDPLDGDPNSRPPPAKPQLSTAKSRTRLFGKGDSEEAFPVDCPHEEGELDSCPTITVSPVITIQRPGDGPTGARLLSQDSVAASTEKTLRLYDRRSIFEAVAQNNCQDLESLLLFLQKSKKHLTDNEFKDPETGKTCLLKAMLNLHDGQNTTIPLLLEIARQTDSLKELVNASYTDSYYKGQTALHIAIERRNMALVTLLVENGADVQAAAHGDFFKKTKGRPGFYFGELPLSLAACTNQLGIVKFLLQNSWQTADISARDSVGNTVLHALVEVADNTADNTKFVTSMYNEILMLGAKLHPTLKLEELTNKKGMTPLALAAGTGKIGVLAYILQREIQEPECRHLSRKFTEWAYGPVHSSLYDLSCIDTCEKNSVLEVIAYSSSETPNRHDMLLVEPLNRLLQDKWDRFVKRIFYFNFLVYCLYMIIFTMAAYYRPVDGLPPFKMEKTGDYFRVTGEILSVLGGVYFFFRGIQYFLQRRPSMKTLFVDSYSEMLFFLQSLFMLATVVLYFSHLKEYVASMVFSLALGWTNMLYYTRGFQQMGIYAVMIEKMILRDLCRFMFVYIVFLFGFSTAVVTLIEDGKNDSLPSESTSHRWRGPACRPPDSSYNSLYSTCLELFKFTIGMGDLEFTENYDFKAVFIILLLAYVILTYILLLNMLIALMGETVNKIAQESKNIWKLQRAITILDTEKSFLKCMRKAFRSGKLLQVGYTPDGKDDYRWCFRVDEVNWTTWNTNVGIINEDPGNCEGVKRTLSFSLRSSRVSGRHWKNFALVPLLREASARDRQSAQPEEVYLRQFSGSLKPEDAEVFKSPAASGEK
Kind of assay: hVR1 FLIPR (Fluorometric Image Plate Reader) screening assay, IC50 determination. Type of assay: cell-based. To be noted: transfected CHO cells stably expressing hVR1; Fluo-4 calcium signal; agonist 50 nM capsaicin or MES buffer pH 5.2. The method, then:
1. hVR1 FLIPR (Fluorometric Image Plate Reader) Screening Assay
Transfected CHO cells, stably expressing hVR1 (15,000 cells/well) are seeded in 50 μL media in a black clear bottom 384 plate (Greiner) and grown in a humidified incubator (37° C., 2% CO2), 24-30 hours prior to experiment.
Subsequently, the media is removed from the cell plate by inversion and 2 μM Fluo-4 is added using a multidrop (Labsystems). Following the 40 min dye incubation in the dark at 37° C. and 2% CO2, the extracellular dye present is washed away using an EMBLA (Scatron), leaving the cells in 40 μL of assay buffer (1×HBSS, 10 mM D-Glucose, 1 mM CaCl2, 10 mM HEPES, 10×7.5% NaHCO3 and 2.5 mM Probenecid).
FLIPR Assay—IC50 Determination Protocol
For IC50 determinations the fluorescence is read using FLIPR filter 1 (em […]). A cellular baseline recording is taken for 30 seconds, followed by a 20 μL addition of 10, titrated half-log concentrations of the test compound, yielding cellular concentration ranging from 3 μM to 0.1 nM. Data is collected every 2 seconds for a further 5 min prior to the addition of a VR1 agonist solution: either 50 nM solution of capsaicin or MES (2-[N-morpholino]ethanesulfonic acid) buffer (pH 5.2), by the FLIPR pipettor. The FLIPR continues to collect data for a further 4 min. Compounds having antagonistic properties against the hVR1 will inhibit the increase in intracellular calcium in response to the capsaicin addition. This consequently leading to a reduction in fluorescence signal and providing a reduced fluorescence reading, compared with no compound, buffer controls. Data is exported by the FLIPR program as a sum of fluorescence calculated under the curve upon the addition of capsaicin. Maximum inhibition, Hill slope and IC50 data for each compound are generated.
Regarding `O=C1NC(=O)C2(N1)C(=O)N(C/C=C/c1ccc(Cl)c(Cl)c1)c1ccc(OC(F)(F)F)cc12` (stereo not drawn) [Compound 3], the IC50 was found to be 3 µM.
Take `CN1C(=O)N(C)C2(C1=O)C(=O)N(C/C=C/c1ccc(Cl)c(Cl)c1)c1ccccc12` (stereo not drawn) [Compound 5, 1′-[(2E)-3-(3,4-dichlorophenyl)prop-2-en-1-yl]-1,3-dimethyl-2H,5H-spiro[imidazolidine-4,3′-indole]-2,2′,5(1′H)-trione]: the concentration for half-maximal inhibition (IC50) is 2.11 µM.
As for `COCCN1C(=O)N(CCOC)C2(C1=O)C(=O)N(C/C=C/c1ccc(Cl)c(Cl)c1)c1ccccc12` (stereo not drawn) [Compound 7, 1′-[(2E)-3-(3,4-dichlorophenyl)prop-2-en-1-yl]-1,3-bis(2-methoxyethyl)-2H,5H-spiro[imidazolidine-4,3′-indole]-2,2′,5(1′H)-trione], the concentration for half-maximal inhibition (IC50) turned out to be 3.01 µM.
